These results are taken from patent publication US11547697B2, “Heterocyclic compounds and uses thereof” (MILLENNIUM PHARMACEUTICALS, INC., priority 2009, dated 2023).

SMILES strings stand for the structures. pIC50: −log10 of the molar value.

Test [1] relates to tumor cells with a PI3Kα mutation (e.g., MDA-MB-361 and T47D). Kind of test: Proliferation of tumor cells with PI3Kα mutation. The class given is cell-based. The note with it: Homo sapiens; T47D cells; read-out: T47D proliferation.
The target of a further test is p110γ (Homo sapiens (Human), UniProt P48736). Put plainly: PI 3-Kinase (human) HTRF assay, p110γ. The test is classed as biochemical. As to conditions: read-out: PI3K γ IC50.
For the next test, the target named is p110β/p85α (Homo sapiens (Human), UniProt P42338). Kind of test: PI 3-Kinase (human) HTRF assay, p110β/p85α. The test is classed as biochemical. As to conditions: read-out: PI3K β IC50. On the technique in general: In TR-FRET formats the signal depends on donor and acceptor labels being close together.
A further test concerns the target p110δ/p85α (Homo sapiens (Human), UniProt O00329). Put plainly: PI 3-Kinase (human) HTRF assay, p110δ/p85α. The class given is biochemical. As to conditions: read-out: PI3K δ IC50.
Another test concerns the target p110α/p85α (Homo sapiens (Human), UniProt P42336). Put plainly: PI 3-Kinase (human) HTRF assay, p110α/p85α. The class given is biochemical. The note with it: read-out: PI3K α IC50.

Sequence of p110γ (P48736 whole entry): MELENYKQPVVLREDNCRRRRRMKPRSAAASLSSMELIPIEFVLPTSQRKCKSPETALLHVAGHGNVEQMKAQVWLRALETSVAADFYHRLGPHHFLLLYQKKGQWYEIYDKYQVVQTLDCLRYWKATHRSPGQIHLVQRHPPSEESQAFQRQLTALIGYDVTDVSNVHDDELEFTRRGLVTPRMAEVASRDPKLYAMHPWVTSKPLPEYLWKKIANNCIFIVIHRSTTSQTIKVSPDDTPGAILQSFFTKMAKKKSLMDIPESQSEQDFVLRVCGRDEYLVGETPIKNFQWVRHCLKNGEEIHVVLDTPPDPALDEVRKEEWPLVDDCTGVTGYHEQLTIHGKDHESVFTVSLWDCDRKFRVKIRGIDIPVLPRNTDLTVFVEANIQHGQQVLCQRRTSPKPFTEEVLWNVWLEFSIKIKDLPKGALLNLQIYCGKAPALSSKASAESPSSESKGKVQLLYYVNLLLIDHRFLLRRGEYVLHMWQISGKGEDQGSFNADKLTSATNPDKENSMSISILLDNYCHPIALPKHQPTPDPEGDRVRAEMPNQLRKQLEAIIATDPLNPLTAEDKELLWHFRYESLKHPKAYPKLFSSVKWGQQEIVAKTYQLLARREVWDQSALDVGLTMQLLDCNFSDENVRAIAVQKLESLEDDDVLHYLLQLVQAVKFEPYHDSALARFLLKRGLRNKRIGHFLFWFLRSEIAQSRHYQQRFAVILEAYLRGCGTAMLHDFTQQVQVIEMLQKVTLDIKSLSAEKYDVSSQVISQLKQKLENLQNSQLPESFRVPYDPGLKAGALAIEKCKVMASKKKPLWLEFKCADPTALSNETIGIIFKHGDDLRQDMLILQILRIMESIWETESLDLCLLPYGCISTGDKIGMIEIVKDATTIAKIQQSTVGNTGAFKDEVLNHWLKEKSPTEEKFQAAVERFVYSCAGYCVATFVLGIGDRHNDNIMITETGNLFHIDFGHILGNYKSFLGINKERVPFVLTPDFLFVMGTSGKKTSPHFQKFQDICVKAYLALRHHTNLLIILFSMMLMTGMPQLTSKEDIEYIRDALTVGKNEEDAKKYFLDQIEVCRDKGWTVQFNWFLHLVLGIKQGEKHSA
Sequence of p110δ/p85α (O00329 whole entry): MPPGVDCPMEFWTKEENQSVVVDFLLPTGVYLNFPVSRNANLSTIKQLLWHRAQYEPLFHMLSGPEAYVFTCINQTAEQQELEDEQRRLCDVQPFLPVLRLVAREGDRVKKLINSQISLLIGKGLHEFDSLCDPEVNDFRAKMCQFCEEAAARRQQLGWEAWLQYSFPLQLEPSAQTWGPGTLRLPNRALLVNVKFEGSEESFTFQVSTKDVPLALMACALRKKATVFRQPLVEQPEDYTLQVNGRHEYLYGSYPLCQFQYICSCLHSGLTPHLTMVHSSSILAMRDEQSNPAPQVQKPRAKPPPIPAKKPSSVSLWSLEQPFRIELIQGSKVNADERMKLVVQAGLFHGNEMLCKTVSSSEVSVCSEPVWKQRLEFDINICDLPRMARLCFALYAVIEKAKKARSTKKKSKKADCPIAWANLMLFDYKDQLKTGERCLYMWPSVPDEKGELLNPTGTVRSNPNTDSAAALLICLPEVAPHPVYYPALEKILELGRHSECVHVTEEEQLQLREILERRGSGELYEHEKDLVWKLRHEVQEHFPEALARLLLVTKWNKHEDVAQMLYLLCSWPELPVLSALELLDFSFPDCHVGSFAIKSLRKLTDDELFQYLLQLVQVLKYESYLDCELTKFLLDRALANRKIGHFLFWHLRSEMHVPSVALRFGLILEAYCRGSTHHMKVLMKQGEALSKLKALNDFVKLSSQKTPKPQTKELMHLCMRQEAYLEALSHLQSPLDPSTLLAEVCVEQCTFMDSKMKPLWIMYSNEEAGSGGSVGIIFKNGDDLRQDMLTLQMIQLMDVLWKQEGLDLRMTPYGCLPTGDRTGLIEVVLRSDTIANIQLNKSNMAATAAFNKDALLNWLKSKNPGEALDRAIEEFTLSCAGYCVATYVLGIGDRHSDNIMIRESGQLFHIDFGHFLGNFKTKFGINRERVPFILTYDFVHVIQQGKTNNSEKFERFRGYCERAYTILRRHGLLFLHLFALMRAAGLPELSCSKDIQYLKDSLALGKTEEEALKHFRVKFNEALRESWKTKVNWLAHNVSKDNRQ
Sequence of p110δ/p85α (P27986 whole entry partner): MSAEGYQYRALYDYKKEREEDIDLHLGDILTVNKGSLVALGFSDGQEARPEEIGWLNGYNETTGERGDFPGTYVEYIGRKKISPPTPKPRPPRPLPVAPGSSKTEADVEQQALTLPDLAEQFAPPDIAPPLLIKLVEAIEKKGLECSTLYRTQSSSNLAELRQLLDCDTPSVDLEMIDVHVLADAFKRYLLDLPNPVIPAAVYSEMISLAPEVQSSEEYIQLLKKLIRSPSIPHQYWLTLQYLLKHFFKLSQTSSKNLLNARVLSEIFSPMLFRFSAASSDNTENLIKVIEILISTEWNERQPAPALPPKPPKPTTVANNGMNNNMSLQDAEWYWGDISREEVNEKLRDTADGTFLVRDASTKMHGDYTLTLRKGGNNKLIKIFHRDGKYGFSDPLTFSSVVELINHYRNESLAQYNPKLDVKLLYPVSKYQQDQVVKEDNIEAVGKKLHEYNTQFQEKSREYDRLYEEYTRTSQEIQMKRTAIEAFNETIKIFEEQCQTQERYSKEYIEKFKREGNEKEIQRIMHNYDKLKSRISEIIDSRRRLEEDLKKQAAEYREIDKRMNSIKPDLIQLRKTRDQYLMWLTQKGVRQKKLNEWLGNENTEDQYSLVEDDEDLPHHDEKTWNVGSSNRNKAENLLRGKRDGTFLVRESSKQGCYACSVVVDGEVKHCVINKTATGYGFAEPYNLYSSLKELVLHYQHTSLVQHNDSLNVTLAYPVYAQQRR
Sequence of p110β/p85α (P42338 whole entry): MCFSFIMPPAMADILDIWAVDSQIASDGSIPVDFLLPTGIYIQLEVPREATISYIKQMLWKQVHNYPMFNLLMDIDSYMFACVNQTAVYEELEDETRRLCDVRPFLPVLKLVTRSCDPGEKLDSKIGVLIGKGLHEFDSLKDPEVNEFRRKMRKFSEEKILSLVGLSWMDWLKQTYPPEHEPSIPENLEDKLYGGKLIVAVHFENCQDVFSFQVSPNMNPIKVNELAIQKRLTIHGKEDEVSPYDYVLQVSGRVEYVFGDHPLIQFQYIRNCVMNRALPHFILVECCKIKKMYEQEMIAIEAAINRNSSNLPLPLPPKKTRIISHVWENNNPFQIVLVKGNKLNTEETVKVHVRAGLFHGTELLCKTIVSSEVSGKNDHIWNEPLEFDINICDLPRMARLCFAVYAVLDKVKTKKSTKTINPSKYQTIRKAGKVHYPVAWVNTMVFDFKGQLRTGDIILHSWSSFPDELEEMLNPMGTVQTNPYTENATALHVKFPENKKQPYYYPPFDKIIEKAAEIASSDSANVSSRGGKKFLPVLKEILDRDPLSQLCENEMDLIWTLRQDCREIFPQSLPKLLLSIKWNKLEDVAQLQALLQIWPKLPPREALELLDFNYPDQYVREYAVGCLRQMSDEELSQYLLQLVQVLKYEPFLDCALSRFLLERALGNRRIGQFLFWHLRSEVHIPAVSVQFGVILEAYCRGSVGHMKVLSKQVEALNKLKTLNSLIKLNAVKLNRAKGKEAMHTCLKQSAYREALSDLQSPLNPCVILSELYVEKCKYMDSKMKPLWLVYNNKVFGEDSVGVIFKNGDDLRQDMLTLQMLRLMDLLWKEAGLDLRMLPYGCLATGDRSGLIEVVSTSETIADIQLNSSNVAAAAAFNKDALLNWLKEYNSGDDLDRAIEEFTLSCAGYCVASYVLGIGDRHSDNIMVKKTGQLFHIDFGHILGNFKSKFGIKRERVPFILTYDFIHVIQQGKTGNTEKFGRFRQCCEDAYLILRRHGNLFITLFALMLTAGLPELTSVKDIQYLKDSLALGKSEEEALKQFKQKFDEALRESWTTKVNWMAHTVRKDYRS
Sequence of p110β/p85α (P27986 whole entry partner): as the sequence (P27986 whole entry partner) above
Sequence of p110α/p85α (P42336 whole entry): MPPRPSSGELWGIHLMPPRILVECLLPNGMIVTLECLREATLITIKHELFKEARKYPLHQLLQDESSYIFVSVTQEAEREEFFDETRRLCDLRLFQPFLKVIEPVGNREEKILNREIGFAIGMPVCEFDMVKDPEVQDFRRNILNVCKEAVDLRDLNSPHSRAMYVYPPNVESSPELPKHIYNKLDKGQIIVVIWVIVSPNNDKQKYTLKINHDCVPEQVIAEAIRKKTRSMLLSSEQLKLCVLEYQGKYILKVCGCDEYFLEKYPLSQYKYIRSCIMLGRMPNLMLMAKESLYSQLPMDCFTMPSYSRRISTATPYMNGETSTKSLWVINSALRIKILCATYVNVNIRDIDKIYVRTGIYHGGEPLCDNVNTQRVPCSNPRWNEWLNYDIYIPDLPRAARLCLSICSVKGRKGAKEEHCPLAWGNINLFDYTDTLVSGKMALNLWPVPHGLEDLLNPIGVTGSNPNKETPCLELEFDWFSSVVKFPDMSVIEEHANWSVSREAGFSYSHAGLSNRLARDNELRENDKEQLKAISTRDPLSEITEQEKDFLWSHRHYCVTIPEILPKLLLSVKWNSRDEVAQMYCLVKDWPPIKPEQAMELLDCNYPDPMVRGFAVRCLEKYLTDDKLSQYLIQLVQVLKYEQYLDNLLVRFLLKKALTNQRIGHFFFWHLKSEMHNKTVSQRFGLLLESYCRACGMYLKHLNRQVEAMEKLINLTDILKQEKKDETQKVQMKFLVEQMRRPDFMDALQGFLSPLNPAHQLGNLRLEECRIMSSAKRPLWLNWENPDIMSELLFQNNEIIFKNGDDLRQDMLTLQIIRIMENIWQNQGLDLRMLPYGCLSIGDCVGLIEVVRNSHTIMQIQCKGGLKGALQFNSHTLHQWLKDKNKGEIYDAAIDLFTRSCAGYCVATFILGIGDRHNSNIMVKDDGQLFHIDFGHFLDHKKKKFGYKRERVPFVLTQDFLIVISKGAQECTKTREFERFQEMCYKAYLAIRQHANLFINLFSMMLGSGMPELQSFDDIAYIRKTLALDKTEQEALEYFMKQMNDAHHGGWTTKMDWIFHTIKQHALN
Sequence of p110α/p85α (P27986 whole entry partner): as the sequence (P27986 whole entry partner) above
Procedure for p110δ/p85α: An exemplary system is PI 3-Kinase (human) HTRF™ Assay from Upstate. […] Briefly, the assay is a time resolved FRET assay that indirectly measures PIP3 product formed by the activity of a PI3-K. The kinase reaction is performed in a microtitre plate (e.g., a 384 well microtitre plate). The total reaction volume is approximately 20 ul per well. In the first step, each well receives 2 ul of test compound in 20% dimethylsulphoxide resulting in a 2% DMSO final concentration. Next, approximately 14.5 ul of a kinase/PIP2 mixture (diluted in 1× reaction buffer) is added per well for a final concentration of 0.25-0.3 ug/ml kinase and 10 μM PIP2. The plate is sealed and incubated for 15 minutes at room temperature. To start the reaction, 3.5 ul of ATP (diluted in 1× reaction buffer) is added per well for a final concentration of 10 μM ATP. The plate is sealed and incubated for 1 hour at room temperature. The reaction is stopped by adding 5 ul of Stop Solution per well and then 5 ul of Detection Mix is added per well. The plate is sealed, incubated for 1 hour at room temperature, and then read on an appropriate plate reader. Data is analyzed and IC50s are generated using GraphPad Prism 5. […] For PI3K α, β, δ, and γ, the nM concentration of inhibitor to reach IC50 is provided.

In the case of `CC(C)N1CCN(c2cnc3ccc(-c4ccc5oc(N)nc5c4)cc3n2)CC1` [compound 84], the pIC50 in test [1] is above 5.00; at p110γ, above 7.00; at p110β/p85α, above 7.00; on p110δ/p85α it was above 6.00; at p110α/p85α, above 7.00.
As for `Nc1nc2cc(-c3ccc4ncc(N5CCNCC5)nc4c3)ccc2o1` [compound 88], the pIC50 was above 5.00 in test [1]; above 6.00 at p110γ; above 7.00 at p110β/p85α; above 5.00 on p110δ/p85α; above 7.00 at p110α/p85α.
On to `CS(=O)(=O)CCN1CCN(c2cnc3ccc(-c4ccc5oc(N)nc5c4)cc3n2)CC1` [compound 90], for which the pIC50 in test [1] was above 6.00; on p110γ, above 6.00; at p110β/p85α, above 6.00; on p110δ/p85α, above 5.00; on p110α/p85α, above 7.00.
Take `Nc1nc2cc(-c3ccc4ncc(NC5CCOCC5)nc4c3)ccc2o1` [compound 96]: the pIC50 in test [1] is above 6.00; at p110γ it was above 7.00; on p110β/p85α, above 5.00; at p110δ/p85α, above 6.00; at p110α/p85α it was above 7.00.
Regarding `Nc1nc2cc(-c3ccc4ncc(N5CCC(O)CC5)nc4c3)ccc2o1` [compound 99], the pIC50 was above 5.00 in test [1]; above 6.00 at p110γ; above 5.00 at p110β/p85α; above 6.00 on p110δ/p85α; above 7.00 at p110α/p85α.
On to `Nc1nc2cc(-c3ccc4ncc(N5CCN(CCO)CC5)nc4c3)ccc2o1` [compound 100], for which the pIC50 in test [1] was above 6.00; on p110γ, above 6.00; on p110β/p85α, above 7.00; on p110δ/p85α it was above 5.00; on p110α/p85α it was above 7.00.
Take `CC(C)N1CCC(Nc2ncnc3ccc(-c4ccc5oc(N)nc5c4)cc23)CC1` [compound 101]: the pIC50 in test [1] was above 5.00; at p110γ, above 5.00; on p110β/p85α, above 5.00; on p110δ/p85α, above 6.00; on p110α/p85α, above 7.00.
For `CN(C)CC(=O)N1CCC(Nc2ncnc3ccc(-c4ccc5oc(N)nc5c4)cc23)CC1` [compound 103], the pIC50 in test [1] is above 5.00; at p110γ, above 6.00; at p110β/p85α, above 6.00; at p110δ/p85α, above 6.00; at p110α/p85α, above 7.00.
For `Nc1nc2cc(-c3ccc4ncc(N5CCN(C(=O)[C@@H]6CCCN6)CC5)nc4c3)ccc2o1` [compound 121], the pIC50 in test [1] is above 6.00; on p110γ, above 7.00; on p110β/p85α, above 7.00; on p110δ/p85α, above 7.00; on p110α/p85α, above 7.00.
As to `Nc1nc2cc(-c3ccc4ncc(NCCN5CCOCC5)nc4c3)ccc2o1` [compound 133], the pIC50 in test [1] was above 5.00; at p110γ it was above 6.00; at p110β/p85α it was above 6.00; at p110δ/p85α it was above 6.00; at p110α/p85α, above 7.00.
As to `CC(N)C(=O)N1CCN(c2cnc3ccc(-c4ccc5oc(N)nc5c4)cc3n2)CC1` (stereo not shown) [compound 134], the pIC50 in test [1] is above 6.00; at p110γ, above 5.00; at p110β/p85α, above 6.00; on p110δ/p85α, above 6.00; on p110α/p85α it was above 7.00.
For the molecule `CC(=O)N1CCC(N(C)c2ncnc3ccc(-c4ccc5oc(N)nc5c4)cc23)CC1` [compound 137], the pIC50 is above 6.00 in test [1]; above 6.00 at p110γ; above 6.00 on p110β/p85α; above 6.00 on p110δ/p85α; above 7.00 on p110α/p85α.
For the molecule `CN(C)CC(=O)N1CCN(c2cnc3ccc(-c4ccc5oc(N)nc5c4)cc3n2)CC1` [compound 139], the pIC50 in test [1] is above 6.00; at p110γ, above 6.00; on p110β/p85α, above 6.00; on p110δ/p85α, above 6.00; on p110α/p85α it was above 7.00.
As for `CCN1CCN(c2cnc3ccc(-c4ccc5oc(N)nc5c4)cc3n2)CC1` [compound 152], the pIC50 in test [1] is above 5.00; at p110γ, above 6.00; on p110β/p85α it was above 7.00; at p110δ/p85α, above 5.00; on p110α/p85α, above 7.00.
Take `Nc1nc2cc(-c3ccc4ncc(N5CCN(CC6CC6)CC5)nc4c3)ccc2o1` [compound 153]: the pIC50 in test [1] is above 6.00; at p110γ it was above 6.00; on p110β/p85α, above 7.00; on p110δ/p85α it was above 6.00; at p110α/p85α, above 7.00.
As for `CNC(=O)N1CCN(c2cnc3ccc(-c4ccc5oc(N)nc5c4)cc3n2)CC1` [compound 154], the pIC50 was above 6.00 in test [1]; above 7.00 at p110γ; above 6.00 at p110β/p85α; above 5.00 on p110δ/p85α; above 7.00 on p110α/p85α.
Take `CN1CC(C(=O)N2CCN(c3cnc4ccc(-c5ccc6oc(N)nc6c5)cc4n3)CC2)C1` [compound 156]: the pIC50 in test [1] is above 6.00; at p110γ, above 6.00; on p110β/p85α, above 6.00; at p110δ/p85α, above 6.00; at p110α/p85α it was above 7.00.
Turning to `CN1CCC(NC(=O)c2cnc3ccc(-c4ccc5oc(N)nc5c4)cn23)CC1` [compound 159], the pIC50 is above 5.00 in test [1]; above 6.00 on p110γ; above 6.00 at p110β/p85α; above 7.00 at p110δ/p85α; above 7.00 on p110α/p85α.
Consider `Nc1nc2cc(-c3ccc4ncc(N5CCC(N6CCOCC6)CC5)nc4c3)ccc2o1` [compound 171], for which the pIC50 was above 6.00 in test [1]; above 6.00 at p110γ; above 6.00 on p110β/p85α; above 6.00 on p110δ/p85α; above 7.00 at p110α/p85α.
Turning to `CC1CN(c2cnc3ccc(-c4ccc5oc(N)nc5c4)cc3n2)CCO1` (stereo not shown) [compound 173], the pIC50 in test [1] is above 5.00; at p110γ it was above 7.00; at p110β/p85α, above 6.00; on p110δ/p85α, above 5.00; on p110α/p85α it was above 7.00.
As to `Cc1nccn1-c1cnc2ccc(-c3ccc4oc(N)nc4c3)cc2n1` [compound 174], the pIC50 in test [1] is above 5.00; at p110γ it was above 7.00; on p110β/p85α, above 6.00; on p110δ/p85α it was above 5.00; at p110α/p85α, above 7.00.
As to `Nc1nc2cc(-c3ccc4ncc(N5CCCC5)nc4c3)ccc2o1` [compound 176], the pIC50 in test [1] is above 6.00; on p110γ, above 7.00; on p110β/p85α it was above 6.00; at p110δ/p85α, above 6.00; on p110α/p85α, above 7.00.
On to `C[C@@H]1CN(c2cnc3ccc(-c4ccc5oc(N)nc5c4)cc3n2)CCN1` [compound 179], for which the pIC50 in test [1] is above 5.00; on p110γ it was above 5.00; at p110β/p85α it was above 6.00; on p110δ/p85α, above 5.00; at p110α/p85α, above 7.00.
With `CS(=O)(=O)CCN1CCC(Nc2cnc3ccc(-c4ccc5oc(N)nc5c4)cc3n2)CC1` [compound 181], the pIC50 in test [1] was above 5.00; on p110γ it was above 7.00; at p110β/p85α, above 5.00; on p110δ/p85α, above 6.00; on p110α/p85α, above 7.00.
Take `CC(C)(C)N1CCN(c2cnc3ccc(-c4ccc5oc(N)nc5c4)cc3n2)CC1` [compound 182]: the pIC50 in test [1] was above 5.00; at p110γ, above 6.00; at p110β/p85α it was above 6.00; at p110δ/p85α it was above 6.00; on p110α/p85α it was above 7.00.
Regarding `CCn1cnc2ccc(-c3ccc4oc(N)nc4c3)cc2c1=O` [compound 183], the pIC50 in test [1] was above 5.00; at p110γ it was above 7.00; at p110β/p85α, above 5.00; on p110δ/p85α, above 5.00; on p110α/p85α, above 7.00.
